Eleven molecules from publication PMC11280325, “Design, Synthesis, and Characterization of Novel Thiazolidine-2,4-Dione-Acridine Hybrids as Antitumor Agents” (Molecules, 2024) can be followed below.

One assay has as its system A549. Nature of the assay: MTT assay, A549. The format is cell-based, human. To be noted: lung adenocarcinoma, 48 h incubation. The protocol: (§1) The human cancer cell lines HeLa (cervical adenocarcinoma), HCT116 (colorectal adenocarcinoma), A2780 (human ovarian adenocarcinoma), A2780cis (human ovarian adenocarcinoma cisplatin-resistant), Jurkat (acute T-lymphoblastic leukemia), and Hep G2 (hepatocellular carcinoma) were cultured in an RPMI 1640 growth medium (Biosera, Kansas City, MO, USA). The cancer cell lines MDA-MB-231 (triple-negative breast adenocarcinoma), A2058 (human melanoma), U87 (human glioblastoma), PATU 8902 (pancreas adenocarcinoma), and A549 (human lung adenocarcinoma) were cultured in a DMEM medium (Biosera, Kansas City, MO, USA). The media were supplemented with 10% fetal bovine serum (FBS) (Invitrogen, Carlsbad, CA, USA) and 1× HyClone™ Antibiotic/Antimycotic Solution (GE Healthcare, Piscataway, NJ, USA).
(§2) To evaluate the IC50 (half-maximal inhibitory concentration) and confirm the antiproliferative activity of the tested substances, we employed the colorimetric MTT assay (3-(4,5-dimethylthiazol-2-yl)-2,5-diphenyltetrazolium bromide) (Sigma-Aldrich Chemie, Steinheim, Germany). The cell lines were seeded in 96-well plates at a density of 5 × 10^3 to 10 × 10^3 cells per well. After 24 h, the tested substances, dissolved in the cultivation medium, were added to the cells at final concentrations of 5, 10, 20, and 50 µmol/L. The cells were then incubated for 48 h under standard cultivation conditions. Following the incubation period, MTT was added to each well. The MTT was metabolized by the cells into insoluble formazan crystals, which were subsequently dissolved by adding 100 µL of 10% SDS. After another 24 h, the absorbance was measured at a wavelength of 540 nm using the automated Cytation™ 3 Cell Imaging Multi-Mode Reader (Biotek, Winooski, VT, USA). The experiments were performed in at least three independent repetitions. IC50 values were calculated using a nonlinear regression method.
On the technique in general: Tetrazolium dyes change colour on reduction, which living cells bring about.

In another assay the test system is HCT116. Nature of the assay: MTT assay, HCT116. Type of assay: cell-based, human. As to conditions: colorectal adenocarcinoma, 48 h incubation. The protocol: as §1, §2
A further assay has as its system A2780. Nature of the assay: MTT assay, A2780. Type of assay: cell-based, human. As to conditions: ovarian adenocarcinoma, 48 h incubation. The protocol: as §1, §2
A further assay has as its system PATU. The assay can be described thus: MTT assay, PATU 8902. Type of assay: cell-based, human. To be noted: pancreas adenocarcinoma, 48 h incubation. The protocol:
as §1, §2

The subject of the next assay is MCF-10A. Nature of the assay: MTT assay, MCF-10A non-cancerous cells. The format is cell-based, human. To be noted: non-cancerous epithelial breast cells, 48 h incubation. The protocol: (§3) The non-cancerous cell line MCF-10A (human epithelial breast cells) was cultured in a DMEM F12 medium supplemented with 10% FBS (Invitrogen, Carlsbad, CA, USA), 1× HyClone™ Antibiotic/Antimycotic Solution (GE Healthcare, Piscataway, NJ, USA), insulin, hEGF, and hydrocortisone. The BJ-5ta cells (human dermal fibroblasts) were cultured in a DMEM-M199 4:1 medium mixture, supplemented with 10% FBS and hygromycin B (0.01 mg/mL). The cells were maintained under standard conditions with an atmosphere containing 5% CO2 at 37 °C. Cell viability, estimated by trypan blue exclusion, was consistently greater than 95% before each experiment.
as §2

The subject of a further assay is Hep G2. Nature of the assay: MTT assay, Hep G2. The format is cell-based, human. To be noted: hepatocellular carcinoma, 48 h incubation. The protocol: as §1, §2
For a further assay, the system named is Bj-5ta. The assay can be described thus: MTT assay, BJ-5ta non-cancerous fibroblasts. Type of assay: cell-based, human. To be noted: non-cancerous dermal fibroblasts, 48 h incubation. The protocol: as §3, §2
Another assay deals with HeLa. The assay can be described thus: MTT assay, HeLa. As to conditions: cervical adenocarcinoma, 48 h incubation. The format is cell-based, human. The protocol: as §1, §2
The subject of another assay is A2058. The assay can be described thus: MTT assay, A2058. Type of assay: cell-based. As to conditions: human melanoma, 48 h incubation. The protocol: as §1, §2

Structures can show the parent of a compound that is named as a salt. Some results are limits rather than exact numbers.

As a reminder, the IC50 is the concentration that gives 50% inhibition.

In the case of `COc1cc(NC(=O)COc2ccc(/C=C3\SC(=O)N(Cc4c5ccccc5nc5ccccc45)C3=O)cc2)cc(OC)c1OC` [7c·2HCl, 2-(4-{[(5Z)-3-[(Acridin-9-yl)methyl]-2,4-dioxo-1,3-thiazolidin-5-ylidene]methyl}phenoxy)-N-(3,4,5-trimethoxyphenyl)acetamide dihydrochloride], the IC50 was above 50 µM with A549; 16.9 ± 1.75 µM with HCT116; above 50 µM in the assay with A2780; above 50 µM in the assay with PATU; above 50 µM in the assay on MCF-10A; above 50 µM with Hep G2. The concentration for half-maximal inhibition (IC50) with Bj-5ta is above 50 µM; in the assay with HeLa, 21.4 ± 5.8 µM; in the assay on A2058, above 50 µM.

Regarding `O=C(COc1ccc(/C=C2\SC(=O)N(Cc3c4ccccc4nc4ccccc34)C2=O)cc1)Nc1ccc([N+](=O)[O-])cc1` [7d·2HCl, 2-(4-{[(5Z)-3-[(Acridin-9-yl)methyl]-2,4-dioxo-1,3-thiazolidin-5-ylidene]methyl}phenoxy)-N-(4-nitrophenyl)acetamide dihydrochloride], the IC50 in the assay on A549 is above 50 µM; in the assay with HCT116, 8.6 ± 2.9 µM; in the assay on A2780, above 50 µM; in the assay on PATU, above 50 µM; in the assay with MCF-10A, above 50 µM; with Hep G2, above 50 µM. Further, the IC50 is above 50 µM in the assay with Bj-5ta, 4.55 ± 0.35 µM in the assay on HeLa and above 50 µM in the assay on A2058.

With `O=C(COc1ccc(/C=C2\SC(=O)N(Cc3c4ccccc4nc4ccccc34)C2=O)cc1)Nc1cccc(C(F)(F)F)c1` [7f·2HCl, 2-(4-{[(5Z)-3-[(Acridin-9-yl)methyl]-2,4-dioxo-1,3-thiazolidin-5-ylidene]methyl}phenoxy)-N-[3-(trifluoromethyl)phenyl]acetamide dihydrochloride], the IC50 in the assay with A549 is 34 ± 6.05 µM; with HCT116 it was 15.2 ± 3.4 µM; in the assay on A2780, above 50 µM; with PATU, 9.82 ± 1.92 µM; in the assay on MCF-10A, 7.7 ± 1.5 µM; in the assay on Hep G2 it was 27.4 ± 5.9 µM. Further, the IC50 with Bj-5ta is 39.5 ± 6.5 µM; in the assay with HeLa, 6.9 ± 0.2 µM; with A2058, above 50 µM.

In the case of `O=C(COc1ccc(/C=C2\SC(=O)N(Cc3c4ccccc4nc4ccccc34)C2=O)cc1)Nc1cc(C(F)(F)F)cc(C(F)(F)F)c1` [7g·2HCl, 2-(4-{[(5Z)-3-[(Acridin-9-yl)methyl]-2,4-dioxo-1,3-thiazolidin-5-ylidene]methyl}phenoxy)-N-[3,5-bis(trifluoromethyl)phenyl]acetamide dihydrochloride], the half-inhibitory concentration (IC50) in the assay with A549 is 32.4 ± 7.6 µM; in the assay on HCT116 it was above 50 µM; in the assay on A2780, above 50 µM; in the assay on PATU, above 50 µM; in the assay with MCF-10A, 13.2 ± 3.2 µM; in the assay on Hep G2 it was above 50 µM. Also, the figures for the IC50 in the assay on Bj-5ta, with HeLa and in the assay with A2058 were above 50 µM, 19.3 ± 4.6 µM and above 50 µM, respectively.

As to `COc1cc(NC(=O)COc2ccc(/C=C3\SC(=O)N(Cc4cccc5cc6ccccc6nc45)C3=O)cc2)cc(OC)c1` [8b·HCl, 2-(4-{[(5Z)-3-[(Acridin-4-yl)methyl]-2,4-dioxo-1,3-thiazolidin-5-ylidene]methyl}phenoxy)-N-(3,5-dimethoxyphenyl)acetamide hydrochloride], the concentration for half-maximal inhibition (IC50) with A549 is above 50 µM; in the assay on HCT116, 32.4 ± 6.3 µM; with A2780, above 50 µM; in the assay on PATU it was above 50 µM; with MCF-10A it was above 50 µM; in the assay with Hep G2, above 50 µM. Further, the 50% inhibitory concentration (IC50) with Bj-5ta is above 50 µM; with HeLa it was 47.9 ± 1.4 µM; in the assay on A2058, above 50 µM.

In the case of `COc1cc(NC(=O)COc2ccc(/C=C3\SC(=O)N(Cc4c5ccccc5nc5ccccc45)C3=O)cc2OC)cc(OC)c1` [12b·2HCl, 2-(4-{[(5Z)-3-[(Acridin-9-yl)methyl]-2,4-dioxo-1,3-thiazolidin-5-ylidene]methyl}-2-methoxyphenoxy)-N-(3,5-dimethoxyphenyl)acetamide dihydrochloride], the concentration for half-maximal inhibition (IC50) is above 50 µM with A549; 27.3 ± 3.75 µM with HCT116; 15 ± 1.4 µM in the assay with A2780; above 50 µM in the assay on PATU; 12.4 ± 1.9 µM in the assay on MCF-10A; above 50 µM in the assay on Hep G2. Besides, the half-maximal inhibitory concentration (IC50) in the assay on Bj-5ta was 29.6 ± 4.4 µM; with HeLa it was 11.9 ± 7.4 µM; with A2058, above 50 µM.

Turning to `COc1cc(/C=C2\SC(=O)N(Cc3c4ccccc4nc4ccccc34)C2=O)ccc1OCC(=O)Nc1cc(OC)c(OC)c(OC)c1` [12c·2HCl, 2-(4-{[(5Z)-3-[(Acridin-9-yl)methyl]-2,4-dioxo-1,3-thiazolidin-5-ylidene]methyl}-2-methoxyphenoxy)-N-(3,4,5-trimethoxyphenyl)acetamide dihydrochloride], the IC50 with A549 is above 50 µM; in the assay on HCT116, 5.4 ± 2.4 µM; with A2780, above 50 µM; in the assay with PATU, above 50 µM; with MCF-10A it was above 50 µM; with Hep G2, above 50 µM. In addition, the IC50 in the assay with Bj-5ta was above 50 µM; in the assay on HeLa, 20.2 ± 5.4 µM; with A2058, above 50 µM.

As to `COc1cc(/C=C2\SC(=O)N(Cc3c4ccccc4nc4ccccc34)C2=O)ccc1OCC(=O)Nc1ccccc1C(F)(F)F` [12e·2HCl, 2-(4-{[(5Z)-3-[(Acridin-9-yl)methyl]-2,4-dioxo-1,3-thiazolidin-5-ylidene]methyl}-2-methoxyphenoxy)-N-[2-(trifluoromethyl)phenyl]acetamide dihydrochloride], the IC50 in the assay on A549 is above 50 µM; in the assay with HCT116, 29.2 ± 3.7 µM; in the assay with A2780, above 50 µM; in the assay on PATU, above 50 µM; in the assay with MCF-10A, above 50 µM; in the assay with Hep G2, above 50 µM. Further, the values for the IC50 with Bj-5ta, with HeLa and in the assay with A2058 were above 50 µM, 13.2 ± 4.9 µM and above 50 µM, respectively.

With `COc1cc(/C=C2\SC(=O)N(Cc3c4ccccc4nc4ccccc34)C2=O)ccc1OCC(=O)Nc1cccc(C(F)(F)F)c1` [12f·2HCl, 2-(4-{[(5Z)-3-[(Acridin-9-yl)methyl]-2,4-dioxo-1,3-thiazolidin-5-ylidene]methyl}-2-methoxyphenoxy)-N-[3-(trifluoromethyl)phenyl]acetamide dihydrochloride], the half-inhibitory concentration (IC50) in the assay on A549 is above 50 µM; in the assay on HCT116, 4.98 ± 2.9 µM; with A2780, above 50 µM; in the assay on PATU, above 50 µM; with MCF-10A, above 50 µM; in the assay on Hep G2, above 50 µM. In addition, the results for the IC50 in the assay on Bj-5ta, in the assay with HeLa and in the assay on A2058 were above 50 µM, 19.4 ± 6.48 µM and above 50 µM, respectively.

Take `COc1cc(/C=C2\SC(=O)N(Cc3c4ccccc4nc4ccccc34)C2=O)ccc1OCC(=O)Nc1cc(C(F)(F)F)cc(C(F)(F)F)c1` [12g·2HCl, 2-(4-{[(5Z)-3-[(Acridin-9-yl)methyl]-2,4-dioxo-1,3-thiazolidin-5-ylidene]methyl}-2-methoxyphenoxy)-N-[3,5-bis(trifluoromethyl)phenyl]acetamide dihydrochloride]: the IC50 in the assay on A549 was above 50 µM; with HCT116, 26.7 ± 9.01 µM; with A2780, above 50 µM; with PATU, above 50 µM; in the assay with MCF-10A it was above 50 µM; with Hep G2, above 50 µM. Also, the IC50 with Bj-5ta is above 50 µM; in the assay with HeLa it was 25.1 ± 6.4 µM; in the assay with A2058, above 50 µM.

Consider `COc1cc(/C=C2\SC(=O)N(Cc3c4ccccc4nc4ccccc34)C2=O)ccc1OCC(=O)Nc1ccccc1` [Compound 12a·2HCl, 2-(4-{[(5Z)-3-[(Acridin-9-yl)methyl]-2,4-dioxo-1,3-thiazolidin-5-ylidene]methyl}-2-methoxyphenoxy)-N-phenylacetamide dihydrochloride], for which the half-inhibitory concentration (IC50) in the assay on A549 is above 50 µM; in the assay on HCT116, 6.55 ± 1.65 µM; with A2780, 15 ± 1.35 µM; in the assay on PATU it was above 50 µM; in the assay with MCF-10A, 19.3 ± 1.1 µM; in the assay on Hep G2, above 50 µM. Besides, the IC50 in the assay with Bj-5ta was 35.5 ± 4.5 µM; in the assay on HeLa, 18.2 ± 5.1 µM; in the assay on A2058 it was above 50 µM.
